Results published in PubChem BioAssay AID2060497 (Molecular Pharmacology Branch, DTP, NCI, 2025).

Tested on: 317291-083-R-J1-PDC complex spheroids, viability
Experiment: Anticancer human tumor 317291-083-R-J1-PDC patient-derived soft tissue sarcoma cell line growth inhibition [GQUAD]
Conditions: for IC50: curve of first compound; for viability, T/C: stronger effect = lower value
Method in brief: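 Tumor cells were grown as complex spheroids with HUVEC endothelial cells and mesenchymal stem cells as stroma. G-quadruplex stabilizers were combined with targeted agents over half-log dilutions from near the clinical Cmax, or from 10 microM.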

[1] = second compound 0.0316 µM, first compound 0.0316 µM
[2] = second compound 0.0316 µM, first compound 0.1 µM
[3] = second compound 0.0316 µM, first compound 0.316 µM
[4] = second compound 0.0316 µM, first compound 1 µM
[5] = second compound 0.0316 µM, first compound 3.16 µM
[6] = second compound 0.0316 µM, first compound 10 µM
[7] = second compound 0.1 µM, first compound 0.0316 µM
[8] = second compound 0.1 µM, first compound 0.1 µM
[9] = second compound 0.1 µM, first compound 0.316 µM
[10] = second compound 0.1 µM, first compound 1 µM
[11] = second compound 0.1 µM, first compound 3.16 µM
[12] = second compound 0.1 µM, first compound 10 µM
[13] = second compound 0.316 µM, first compound 0.0316 µM
[14] = second compound 0.316 µM, first compound 0.1 µM
[15] = second compound 0.316 µM, first compound 0.316 µM
[16] = second compound 0.316 µM, first compound 1 µM
[17] = second compound 0.316 µM, first compound 3.16 µM
[18] = second compound 0.316 µM, first compound 10 µM
[19] = second compound 1 µM, first compound 0.0316 µM
[20] = second compound 1 µM, first compound 0.1 µM
[21] = second compound 1 µM, first compound 0.316 µM
[22] = second compound 1 µM, first compound 1 µM
[23] = second compound 1 µM, first compound 3.16 µM
[24] = second compound 1 µM, first compound 10 µM
[25] = second compound 3.16 µM, first compound 0.0316 µM
[26] = second compound 3.16 µM, first compound 0.1 µM
[27] = second compound 3.16 µM, first compound 0.316 µM
[28] = second compound 3.16 µM, first compound 1 µM
[29] = second compound 3.16 µM, first compound 3.16 µM
[30] = second compound 3.16 µM, first compound 10 µM
[31] = second compound 10 µM, first compound 0.0316 µM
[32] = second compound 10 µM, first compound 0.1 µM
[33] = second compound 10 µM, first compound 0.316 µM
[34] = second compound 10 µM, first compound 1 µM
[35] = second compound 10 µM, first compound 3.16 µM
[36] = second compound 10 µM, first compound 10 µM
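Further: spheroids exposed to compounds for one week before readout.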
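Wherever viability, T/C is given: percent viability relative to DMSO vehicle wells taken as 100%.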

`C#Cc1c(F)ccc2cc(O)cc(-c3ncc4c(N5CC6CCC(C5)N6)nc(OCC56CCCN5CC(F)C6)nc4c3F)c12` (stereo unspecified) + Cc1[nH]c2ccc(F)cc2c1-c1nc2c3cccnc3c3ncccc3c2[nH]1 showed an IC50 (second compound 0.0316 µM) of 6.33 µM, an IC50 (second compound 0.1 µM) of 5.6 µM and an IC50 (second compound 0.316 µM) of 4.53 µM. For the same molecule, the IC50 (second compound 1 µM) was 3.28 µM, the IC50 (second compound 3.16 µM) was under 0.0316 µM and the IC50 (second compound 10 µM) was 1.36 µM. The viability, T/C [1] was 109%, the viability, T/C [2] was 92.8% and the viability, T/C [3] was 97.8%. The viability, T/C [4] was 99%, the viability, T/C [5] was 82.2% and the viability, T/C [6] was 28.6%. For the same molecule, the viability, T/C [7] was 90.9%, the viability, T/C [8] was 106% and the viability, T/C [9] was 94.9%. The viability, T/C [10] was 108%, the viability, T/C [11] was 75.6% and the viability, T/C [12] was 23.9%. For the same molecule, the viability, T/C [13] was 80.3%, the viability, T/C [14] was 58.9% and the viability, T/C [15] was 79.3%. The viability, T/C [16] was 59.2%, the viability, T/C [17] was 72.5% and the viability, T/C [18] was 6%. For the same molecule, the viability, T/C [19] was 66.5%, the viability, T/C [20] was 52.8% and the viability, T/C [21] was 64.2%. It also gave a viability, T/C [22] of 54.2%, a viability, T/C [23] of 52.5% and a viability, T/C [24] of 3%. It also gave a viability, T/C [25] of 46.6%, a viability, T/C [26] of 36.7% and a viability, T/C [27] of 35.3%. The viability, T/C [28] was 33.7%, the viability, T/C [29] was 35.2% and the viability, T/C [30] was 0.12%. The viability, T/C [31] was 47.8%, the viability, T/C [32] was 60.2% and the viability, T/C [33] was 55.2%. It also gave a viability, T/C [34] of 52.9%, a viability, T/C [35] of 42% and a viability, T/C [36] of 0.16%.
`CC(=O)O[C@H]1C(=O)[C@@]2(C)[C@H]([C@H](OC(=O)c3ccccc3)[C@]3(O)C[C@H](OC(=O)[C@H](O)[C@@H](NC(=O)c4ccccc4)c4ccccc4)C(C)=C1C3(C)C)[C@]1(OC(C)=O)CO[C@@H]1C[C@@H]2O` + Cc1[nH]c2ccc(F)cc2c1-c1nc2c3cccnc3c3ncccc3c2[nH]1 was tested, and the IC50 (second compound 0.0316 µM) was under 0.0316 µM, the IC50 (second compound 0.1 µM) was under 0.0316 µM and the IC50 (second compound 0.316 µM) was under 0.0316 µM. It also gave an IC50 (second compound 1 µM) of under 0.0316 µM, an IC50 (second compound 3.16 µM) of under 0.0316 µM and an IC50 (second compound 10 µM) of under 0.0316 µM. For the same molecule, the viability, T/C [1] was 45.6%, the viability, T/C [2] was 19.7% and the viability, T/C [3] was 15.5%. For the same molecule, the viability, T/C [4] was 16.5%, the viability, T/C [5] was 13.9% and the viability, T/C [6] was 12.1%. It also gave a viability, T/C [7] of 46.6%, a viability, T/C [8] of 21.5% and a viability, T/C [9] of 12.2%. For the same molecule, the viability, T/C [10] was 17.6%, the viability, T/C [11] was 15.1% and the viability, T/C [12] was 16.6%. It also gave a viability, T/C [13] of 40%, a viability, T/C [14] of 18.9% and a viability, T/C [15] of 16.8%. The viability, T/C [16] was 15.3%, the viability, T/C [17] was 13.7% and the viability, T/C [18] was 16.1%. For the same molecule, the viability, T/C [19] was 32.9%, the viability, T/C [20] was 18% and the viability, T/C [21] was 17.2%. It also gave a viability, T/C [22] of 17.7%, a viability, T/C [23] of 16.1% and a viability, T/C [24] of 12.7%. The viability, T/C [25] was 20.1%, the viability, T/C [26] was 11% and the viability, T/C [27] was 12.4%. It also gave a viability, T/C [28] of 11.6%, a viability, T/C [29] of 10.7% and a viability, T/C [30] of 8.8%. It also gave a viability, T/C [31] of 27%, a viability, T/C [32] of 17.1% and a viability, T/C [33] of 15.2%. It also gave a viability, T/C [34] of 14.7%, a viability, T/C [35] of 12.7% and a viability, T/C [36] of 12.5%.
`CC(C)(O)C1CCC(Nc2ccc3ncc(-c4cccc(C(F)(F)F)c4)n3n2)CC1` (stereo unspecified) + Cc1[nH]c2ccc(F)cc2c1-c1nc2c3cccnc3c3ncccc3c2[nH]1 was tested, and the IC50 (second compound 0.0316 µM) was 0.647 µM, the IC50 (second compound 0.1 µM) was 0.576 µM and the IC50 (second compound 0.316 µM) was 0.421 µM. It also gave an IC50 (second compound 1 µM) of 0.114 µM, an IC50 (second compound 3.16 µM) of under 0.0316 µM and an IC50 (second compound 10 µM) of under 0.0316 µM. It also gave a viability, T/C [1] of 102%, a viability, T/C [2] of 102% and a viability, T/C [3] of 85.9%. The viability, T/C [4] was 28.2%, the viability, T/C [5] was 0.62% and the viability, T/C [6] was 0.37%. For the same molecule, the viability, T/C [7] was 91%, the viability, T/C [8] was 85% and the viability, T/C [9] was 77.1%. The viability, T/C [10] was 25.4%, the viability, T/C [11] was 0.16% and the viability, T/C [12] was 0.74%. The viability, T/C [13] was 61.8%, the viability, T/C [14] was 70.9% and the viability, T/C [15] was 61.6%. The viability, T/C [16] was 14.3%, the viability, T/C [17] was 0.22% and the viability, T/C [18] was 0.17%. It also gave a viability, T/C [19] of 58.1%, a viability, T/C [20] of 43% and a viability, T/C [21] of 45.1%. It also gave a viability, T/C [22] of 8.74%, a viability, T/C [23] of 0.32% and a viability, T/C [24] of 0.16%. The viability, T/C [25] was 29.5%, the viability, T/C [26] was 19.8% and the viability, T/C [27] was 24.1%. The viability, T/C [28] was 7.5%, the viability, T/C [29] was 0.94% and the viability, T/C [30] was 0.2%. The viability, T/C [31] was 41%, the viability, T/C [32] was 38.6% and the viability, T/C [33] was 44.5%. It also gave a viability, T/C [34] of 14.2%, a viability, T/C [35] of 0.55% and a viability, T/C [36] of 0.82%.
